In patent US20040220164A1, “Triaza compound immunoregulatory agents” (priority 2001, published 2004):
Converted amounts (≈) assume the structure as drawn. Where two headings read alike, the source gives them in different places.

Columns and labels:
CD4 [1] = target: T1, CD4 (Homo sapiens, UniProt P01730); assay: CD4 down-modulation, flow cytometry with FITC-conjugated anti-CD4 (SK3) mAb, SupT1 cells; format: cell-based; parameters: To study the effect of the CADA derivatives on surface CD4 antigen expression, MT-4 and SupT1 cells were incubated; endogenous in cells; host or cells: MT-4, SupT1, PBMC; settings: for IC50: day 4, read-out: IC50 CD4 (50% inhibition of extracellular CD4 expression) (converted)
Protocol: (§1) Flow Cytometric Analyses. To study the effect of the CADA derivatives on surface CD4 antigen expression, MT-4 and SupT1 cells were incubated with a serial 5-fold dilution of the compounds (50, 10, 2, 0.4 and 0.08 μg/ml) or medium at 37° C. Cell surface CD4 antigen expression was analyzed at day 3 (MT-4) or day 4 (SupT1). Briefly, after washing with phosphate-buffered saline (PBS) containing 2% fetal calf serum (FCS), cells were incubated with FITC-conjugated anti-CD4 (SK3) mAb for 30 min at 4° C. As a negative control for a specific background staining, cells were stained in parallel with Simultest Control γ1/γ^2a (Becton Dickinson). Then the cells were washed, fixed with 1% formaldehyde and analyzed by flow cytometry in a FACScalibur (Becton Dickinson, San Jose, Calif., USA). Data were acquired and analyzed with CellQuest software (Becton Dickinson). For the calculation of the CD4 receptor expression, the mean fluorescence intensity (MFI) of each sample was expressed as percentage of the MFI of control cells (after subtracting the MFI of the isotype control). Finally, the IC50 value of the compounds (i.e., the concentration of the compound required for 50% inhibition of extracellular CD4 expression) was calculated.

HIV-1 strain NL4.3 = assay: Anti-HIV-1 assay in MT-4 cells (p24 Ag ELISA, Example 3); format: cell-based; settings: Human immunodeficiency virus 1, MT4; MT-4 cells; read-out: IC50 HIV-1 (NL4.3), p24 Ag ELISA
Protocol: Antiviral Assays. For HIV-1, MT-4 cells were infected with the HIV-1 strain NL4.3. Briefly, five-fold dilutions of the compounds (in 100 μl) were added to 96-well flat bottom plates (Iwaki, Japan). Then, to each well, 7.5×10^4 MT-4 cells were added in 50 μl medium, followed by 50 μl of diluted HIV-1 stock (strain NL4.3). Cytopathic effect (CPE) induced by the virus was checked regularly microscopically. When strong CPE was observed (after 3 to 5 days of incubation) in untreated HIV-1 infected cells, the supernatant was collected, stored at −20° C. and analyzed for HIV-1 core antigen by p24 Ag ELISA (NEN™, PerkinElmer Life Sciences, Boston, Mass.). Finally, the IC50 value of the compounds (i.e., the concentration of the compound required for 50% reduction of HIV infection as measured by viral p24 antigen level in the supernatant of infected MT-4 cells) was calculated.

CD4 [2] = target: T1, CD4; assay: Cell surface CD4 expression by flow cytometry (anti-CD4 mAb Leu3a-PE); format: cell-based; parameters: To study the effect of the CADA derivatives on surface CD4 antigen expression, MT-4 and SupT1 cells were incubated; endogenous in cells; host or cells: MT-4, SupT1, PBMC
Protocol: FIGS. 2A-2C. Surface CD4 expression in MT-4 cell line, SupT1 cell line and PBMCs after incubation with CADA hydrochloride (3.2 or 16 μM) for 1 and 4 days. (A) Cell surface CD4 expression of control MT-4 cells and MT-4 cells treated with CADA (3.2 μM) for 1 day or 4 days. (B) Cell surface CD4 expression of control SupT1 cells and SupT1 cells treated with CADA (3.2 μM) for 1 day or 4 days. (C) Cell surface CD4 expression of control PBMCs and PBMCs treated with CADA (16 μM) for 1 day or 4 days. The cells were stained with anti-CD4 mAb (Leu3a-PE). Percentages of fluorescent cells and MFI (mean fluorescence intensity) are indicated in each histogram.
FIG. 4. Comparison of the effects on CD4 modulation by ATA (24 μM), CADA hydrochloride (16 μM) and PMA (8 nM) in SupT1 cells after incubation with the compounds analyzed after 20 minutes, 4 hours, 1 day and 4 days.
Cells were incubated with CADA hydrochloride and the CD4 expression on the cell surface was analyzed. […] In peripheral blood mononuclear cells (PBMCs), the percentage of CD4 expression decreased to 0.2% after incubation with CADA (16 μM) for 4 days (FIG. 2).
Expression of various other surface antigens was also examined in MT-4 cells, SupT1 cells and PBMCs after incubation with CADA (16 μM) or CADA-free medium at 37° C. for 4 days. After washing with phosphate-buffered saline (PBS) containing 2% FCS(fetal calf serum), the cells were incubated with mAb (as indicated in Table 1) for 20 min at 4° C. Then the cells were washed, fixed with 1% formaldehyde and analyzed by flow cytometry. All mAbs were purchased from Becton-Dickinson (Erembodegem, Belgium).
CADA was compared with ATA and PMA with regard to their down-modulating effects. […] At day 4, the CD4 expression in SupT1 cells treated with CADA reduced to 1.2%.

[3] = Cytotoxicity assay (trypan blue exclusion, propidium iodide); format: cell-based, human; settings: human, read-out: CC50 (50% cytotoxic concentration)
Protocol: Cytotoxicity Assay. Cellular toxicity of the compounds was measured by trypan blue exclusion and also by Propidium Iodide by flow cytometry after 3 or 4 days of incubation, in parallel with the CD4 antigen expression. The CC50 value of each CADA analog is the concentration (in μg/ml) required to reduce the viability of the cells by 50%.

CD4 [4] = target: T1, CD4; assay: CD4 down-modulation, flow cytometry with FITC-conjugated anti-CD4 (SK3) mAb, MT-4 cells; format: cell-based; parameters: To study the effect of the CADA derivatives on surface CD4 antigen expression, MT-4 and SupT1 cells were incubated; endogenous in cells; host or cells: MT-4, SupT1, PBMC; settings: for IC50: MT-4 cells, day 3, read-out: IC50 CD4 (50% inhibition of extracellular CD4 expression) (converted); for CD4 down-modulating activity, fold less active than CADA: compared to CADA, MT-4 cells (stated for some compounds); for CD4 down-modulating activity compared with CADA or parent analog (in words): structure-activity discussion of Table 5 (MT-4 and SupT1 cells)
Protocol: as §1, with “Cell surface CD4 antigen expression was analyzed at day 3 (MT-4) or day 4 (SupT1).” left out

HHV-7 (KHR strain) = assay: Anti-HHV-7 assay in SupT1 cells (antigen expression, flow cytometry, Example 3); format: cell-based; settings: SUP-T1; SupT1 cells; read-out: IC50 HHV-7 (50% reduction of HHV-7 antigen expression)
Protocol: For HHV-7, five-fold dilutions of the compounds were added in 500 μl culture medium in 24-well flat bottom plates (Iwaki, Japan), whereupon 2×10^5 SupT1 cells were added in 400 μl culture medium. After 30 min incubation at room temperature, 100 μl of HHV-7 stock was added to each well. HHV-7-infected and mock-infected SupT1 cells were cultured in a final volume of 1 ml medium in the absence of the compounds. On day 4, half of the medium and the cells were replaced and fresh medium without new compound was added. This procedure was repeated every 2 or 3 days. The CPE was checked regularly microscopically. When CPE was observed, the HHV-7 antigen expression was monitored by flow cytometry, as described previously (Zhang, Y. et al. (1999) “Selective activity of various antiviral compounds against HHV-7 infection Antiviral Res. 43, 23-35.)

| CD4 down-regulation (in words) (CD4 [1]) | IC50 (CD4 [1]) [µM] | IC50 (HIV-1 strain NL4.3) [µg/mL] | down-regulation of CD4 expression (in words) (CD4 [2]) | IC50 (CD4 [4]) [µM] | CD4 down-modulating activity, fold less active than CADA (CD4 [4]) [fold] | IC50 (HHV-7 (KHR strain)) [µg/mL] | CD4 down-modulating activity compared with CADA or parent analog (in words) (CD4 [4]) | Structure (SMILES) | CC50 ([3]; MT-4 cells) [µg/mL] | CC50 ([3]; SupT1 cells) [µg/mL] |
| --- | --- | --- | --- | --- | --- | --- | --- | --- | --- | --- |
| not active | > 18.7 | 5.55 (≈ 10.4 µM) | down-regulate CD4 expression | 11.4 | 17 | 1.4 (≈ 2.62 µM) |  | C=C1CN(S(=O)(=O)c2ccc(C)cc2)CCCN(C(C)C)CCCN(S(=O)(=O)c2ccc(C)cc2)C1 [QJ035] | 22.2 (≈ 41.6 µM) | 23 (≈ 43.1 µM) |
|  | 0.854 | 0.31 (≈ 0.552 µM) | down-regulate CD4 expression | 0.73 |  | 0.34 (≈ 0.605 µM) |  | C=C1CN(S(=O)(=O)c2ccc(C)cc2)CCCN(CCC(C)C)CCCN(S(=O)(=O)c2ccc(C)cc2)C1 [QJ038] | 19.4 (≈ 34.5 µM) | 8.4 (≈ 15 µM) |
|  | 3.27 | 0.95 (≈ 1.73 µM) | down-regulate CD4 expression | 2.12 |  | 1.19 (≈ 2.17 µM) | somewhat in between | C=C1CN(S(=O)(=O)c2ccc(C)cc2)CCCN(C(C)CC)CCCN(S(=O)(=O)c2ccc(C)cc2)C1 (stereo not drawn) [QJ036] | 20.9 (≈ 38.2 µM) | > 50 |
|  | 5.73 | 2 (≈ 3.75 µM) | down-regulate CD4 expression | 4.83 |  | 0.91 (≈ 1.7 µM) | somewhat in between | C=C1CN(S(=O)(=O)c2ccc(C)cc2)CCCN(CCC)CCCN(S(=O)(=O)c2ccc(C)cc2)C1 [QJ029] | 20.7 (≈ 38.8 µM) | 22.2 (≈ 41.6 µM) |
|  | 12.4 | 2.36 (≈ 4.05 µM) | down-regulate CD4 expression | 4.41 | 9 | 1.59 (≈ 2.73 µM) |  | C=C1CN(S(=O)(=O)c2ccc(C)cc2)CCCN(Cc2ccncc2)CCCN(S(=O)(=O)c2ccc(C)cc2)C1 [QJ030] | 21.3 (≈ 36.5 µM) | > 50 |
|  | > 85.6 | > 10 |  | > 17.1 |  | 4.43 (≈ 7.59 µM) | significantly decreased | Cc1ccc(S(=O)(=O)N2CCCN(Cc3ccccc3)CCCN(S(=O)(=O)c3ccc(C)cc3)CC(=O)C2)cc1 [MFS010] | 29.3 (≈ 50.2 µM) | > 50 |
|  | 7.6 | 3.66 (≈ 6.71 µM) | down-regulate CD4 expression | 6.38 |  | 1.76 (≈ 3.22 µM) | reduced the activity | C=C1CN(S(=O)(=O)c2ccc(C)cc2)CCCN(CC2CC2)CCCN(S(=O)(=O)c2ccc(C)cc2)C1 [QJ041] | 18.6 (≈ 34.1 µM) | 21.9 (≈ 40.1 µM) |
|  | 0.615 | 0.29 (≈ 0.495 µM) | down-regulate CD4 expression | 0.444 |  | 0.1 (≈ 0.171 µM) | slightly enhanced | C=C1CN(S(=O)(=O)c2ccc(C)cc2)CCCN(CC2CC=CCC2)CCCN(S(=O)(=O)c2ccc(C)cc2)C1 (stereo not drawn) [QJ023] | 22.2 (≈ 37.9 µM) | 28.9 (≈ 49.3 µM) |
|  | 1.23 | 0.48 (≈ 0.854 µM) | down-regulate CD4 expression | 0.943 |  | 0.13 (≈ 0.231 µM) |  | C=C1CN(S(=O)(=O)c2ccc(C)cc2)CCCN(CC(C)CC)CCCN(S(=O)(=O)c2ccc(C)cc2)C1 (stereo not drawn) [QJ037] | 22.1 (≈ 39.3 µM) | 24 (≈ 42.7 µM) |
|  | > 68.9 | ≥ 10 |  | > 13.8 |  | 0.92 (≈ 1.27 µM) | significant loss | C=C1CN(S(=O)(=O)c2ccc(COCCCC)cc2)CCCN(Cc2ccccc2)CCCN(S(=O)(=O)c2ccc(COCCCC)cc2)C1 [MFS117] | 18.9 (≈ 26 µM) | > 50 |
|  | > 85.8 | > 50 |  | > 85.8 |  | > 50 | complete loss of activity | C=C1CN(S(=O)(=O)c2ccc(C)cc2)CCCN(Cc2ccccn2)CCCN(S(=O)(=O)c2ccc(C)cc2)C1 [Compound 98-037] | > 50 | > 50 |
